Assay results reported in ChEMBL document CHEMBL5661982 (Mol Cancer Ther, 2012).
Active and inactive are the calls of the source. The calls are words filed in the database; no cut-off is given here.

Assays:
HT-29 [1] = settings: Homo sapiens, dose 50.0 mg/kg/day, route po, time 21.0 day
U-87 MG [2] = assay: Antitumor activity against human U-87 MG cells xenografted in athymic nu/nu mouse assessed as tumor growth inhibition at 30 mg/kg, po for 9 days relative to control; settings: 216 h, read-out: TGI
NCI-H1993 = assay: Antiproliferative activity against human NCI-H1993 cells over expressing c-Met assessed as reduction in cell viability after 48 to 72 hrs by MTT assay
SW-620 = assay: Antitumor activity against human SW620 cells xenografted in athymic nu/nu mouse assessed as tumor growth inhibition at 40 mg/kg/day, po for 25 days relative to control; settings: SW-620, po, 600 h, read-out: TGI
HT-29 [3] = assay: Antitumor activity against human HT-29 cells xenografted in athymic nu/nu mouse assessed as tumor growth inhibition at 50 mg/kg/day, po for 21 days relative to control; settings: HT-29, po, 504 h, read-out: TGI
GTL 16 cell line [4] = assay: Antitumor activity against human GTL 16 cells xenografted in athymic nu/nu mouse assessed as tumor growth inhibition at 10 mg/kg, po administered for 16 days relative to control; settings: GTL 16, po, 384 h, read-out: TGI
MDA-MB-468 = assay: Antiproliferative activity against human MDA-MB-468 cells over expressing c-Met assessed as reduction in cell viability after 48 to 72 hrs by MTT assay
GTL 16 [5] = settings: Homo sapiens, dose 3-30 mg/kg, route po, time 4.0 day
HT-29 [6] = assay: Antitumor activity against human HT-29 cells transfected with RON shRNA xenografted in athymic nu/nu mouse assessed as tumor growth inhibition at 50 mg/kg/day, po for 21 days relative to control; settings: HT-29, po, 504 h, read-out: TGI
U-87MG ATCC [7] = settings: Homo sapiens, dose 5-50 mg/kg, route po, time 3.0 day
HT-29 [8] = settings: Homo sapiens, dose 50.0 mg/kg/day, route po, time 21.0 day; remark: listed apart in the source
COLO 205 [9] = assay: Antiproliferative activity against human COLO 205 cells over expressing c-Met assessed as reduction in cell viability after 48 to 72 hrs by MTT assay
GTL 16 [10] = settings: Homo sapiens, dose 0.3-10 mg/kg, route po, time 4.0 day
U-87MG ATCC [11] = settings: Homo sapiens, dose 5-50 mg/kg, route po, time 3.0 day; remark: listed apart in the source
GTL 16 cell line [12] = assay: Antitumor activity against human GTL 16 cells xenografted in athymic nu/nu mouse assessed as tumor growth inhibition at 1 mg/kg, po administered for 16 days relative to control; settings: GTL 16, po, 384 h, read-out: TGI
[13] = Inhibition of c-Met R988C mutant phosphorylation in human NCI-H69 cells assessed as reduction in HGF-stimulated c-Met phosphorylation incubated for 1 hr by ELISA analysis; settings: NCI-H69, 1 h
[14] = Inhibition of c-Met T11010I mutant phosphorylation in human HOP-92 cells assessed as reduction in HGF-stimulated c-Met phosphorylation incubated for 1 hr by ELISA analysis; settings: HOP-92, 1 h
GTL 16 cell line [15] = assay: Antitumor activity against human GTL 16 cells xenografted in athymic nu/nu mouse assessed as tumor growth inhibition at 0.5 mg/kg, sc minipump administered for 14 days relative to control; settings: GTL 16, 336 h, read-out: TGI
PC-3 = assay: Antiproliferative activity against human PC-3 cells over expressing c-Met assessed as reduction in cell viability after 48 to 72 hrs by MTT assay
U-87 MG [16] = assay: Antitumor activity against human U-87 MG cells xenografted in athymic nu/nu mouse assessed as tumor growth inhibition at 3 mg/kg, po for 9 days relative to control; settings: 216 h, read-out: TGI
HUVEC = assay: Antiproliferative activity against HGF-stimulated HUVEC cells assessed as reduction in cell viability after 48 to 72 hrs by MTT assay; settings: Homo sapiens
COLO 205 [17] = assay: Antitumor activity against human COLO 205 cells xenografted in athymic nu/nu mouse assessed as tumor growth inhibition at 40 mg/kg/day, po for 18 days relative to control; settings: COLO 205, po, 432 h, read-out: TGI
NCI-H441 = assay: Inhibition of cell migration in HGF-stimulated human NCI-H441 cells over expressing c-Met incubated for 48 hrs by Matrigel based analysis; settings: NCI-H441, 48 h
U-87MG ATCC [18] = settings: Homo sapiens, dose 5-50 mg/kg, route po, time 3.0 day; remark: listed apart in the source
GTL 16 cell line [19] = assay: Antitumor activity against human GTL 16 cells xenografted in athymic nu/nu mouse assessed as tumor growth inhibition at 15 mg/kg, sc minipump administered for 14 days relative to control; settings: GTL 16, 336 h, read-out: TGI
SLC34A2-ROS1 = SLC34A2-ROS1 (Homo sapiens, UniProt P08922); assay: Inhibition of SLC34A2-Ros phosphorylation in human HCC87 cells incubated for 1 hr by sandwich ELISA analysis
SLC34A2-ROS1, sequence (P08922 whole entry): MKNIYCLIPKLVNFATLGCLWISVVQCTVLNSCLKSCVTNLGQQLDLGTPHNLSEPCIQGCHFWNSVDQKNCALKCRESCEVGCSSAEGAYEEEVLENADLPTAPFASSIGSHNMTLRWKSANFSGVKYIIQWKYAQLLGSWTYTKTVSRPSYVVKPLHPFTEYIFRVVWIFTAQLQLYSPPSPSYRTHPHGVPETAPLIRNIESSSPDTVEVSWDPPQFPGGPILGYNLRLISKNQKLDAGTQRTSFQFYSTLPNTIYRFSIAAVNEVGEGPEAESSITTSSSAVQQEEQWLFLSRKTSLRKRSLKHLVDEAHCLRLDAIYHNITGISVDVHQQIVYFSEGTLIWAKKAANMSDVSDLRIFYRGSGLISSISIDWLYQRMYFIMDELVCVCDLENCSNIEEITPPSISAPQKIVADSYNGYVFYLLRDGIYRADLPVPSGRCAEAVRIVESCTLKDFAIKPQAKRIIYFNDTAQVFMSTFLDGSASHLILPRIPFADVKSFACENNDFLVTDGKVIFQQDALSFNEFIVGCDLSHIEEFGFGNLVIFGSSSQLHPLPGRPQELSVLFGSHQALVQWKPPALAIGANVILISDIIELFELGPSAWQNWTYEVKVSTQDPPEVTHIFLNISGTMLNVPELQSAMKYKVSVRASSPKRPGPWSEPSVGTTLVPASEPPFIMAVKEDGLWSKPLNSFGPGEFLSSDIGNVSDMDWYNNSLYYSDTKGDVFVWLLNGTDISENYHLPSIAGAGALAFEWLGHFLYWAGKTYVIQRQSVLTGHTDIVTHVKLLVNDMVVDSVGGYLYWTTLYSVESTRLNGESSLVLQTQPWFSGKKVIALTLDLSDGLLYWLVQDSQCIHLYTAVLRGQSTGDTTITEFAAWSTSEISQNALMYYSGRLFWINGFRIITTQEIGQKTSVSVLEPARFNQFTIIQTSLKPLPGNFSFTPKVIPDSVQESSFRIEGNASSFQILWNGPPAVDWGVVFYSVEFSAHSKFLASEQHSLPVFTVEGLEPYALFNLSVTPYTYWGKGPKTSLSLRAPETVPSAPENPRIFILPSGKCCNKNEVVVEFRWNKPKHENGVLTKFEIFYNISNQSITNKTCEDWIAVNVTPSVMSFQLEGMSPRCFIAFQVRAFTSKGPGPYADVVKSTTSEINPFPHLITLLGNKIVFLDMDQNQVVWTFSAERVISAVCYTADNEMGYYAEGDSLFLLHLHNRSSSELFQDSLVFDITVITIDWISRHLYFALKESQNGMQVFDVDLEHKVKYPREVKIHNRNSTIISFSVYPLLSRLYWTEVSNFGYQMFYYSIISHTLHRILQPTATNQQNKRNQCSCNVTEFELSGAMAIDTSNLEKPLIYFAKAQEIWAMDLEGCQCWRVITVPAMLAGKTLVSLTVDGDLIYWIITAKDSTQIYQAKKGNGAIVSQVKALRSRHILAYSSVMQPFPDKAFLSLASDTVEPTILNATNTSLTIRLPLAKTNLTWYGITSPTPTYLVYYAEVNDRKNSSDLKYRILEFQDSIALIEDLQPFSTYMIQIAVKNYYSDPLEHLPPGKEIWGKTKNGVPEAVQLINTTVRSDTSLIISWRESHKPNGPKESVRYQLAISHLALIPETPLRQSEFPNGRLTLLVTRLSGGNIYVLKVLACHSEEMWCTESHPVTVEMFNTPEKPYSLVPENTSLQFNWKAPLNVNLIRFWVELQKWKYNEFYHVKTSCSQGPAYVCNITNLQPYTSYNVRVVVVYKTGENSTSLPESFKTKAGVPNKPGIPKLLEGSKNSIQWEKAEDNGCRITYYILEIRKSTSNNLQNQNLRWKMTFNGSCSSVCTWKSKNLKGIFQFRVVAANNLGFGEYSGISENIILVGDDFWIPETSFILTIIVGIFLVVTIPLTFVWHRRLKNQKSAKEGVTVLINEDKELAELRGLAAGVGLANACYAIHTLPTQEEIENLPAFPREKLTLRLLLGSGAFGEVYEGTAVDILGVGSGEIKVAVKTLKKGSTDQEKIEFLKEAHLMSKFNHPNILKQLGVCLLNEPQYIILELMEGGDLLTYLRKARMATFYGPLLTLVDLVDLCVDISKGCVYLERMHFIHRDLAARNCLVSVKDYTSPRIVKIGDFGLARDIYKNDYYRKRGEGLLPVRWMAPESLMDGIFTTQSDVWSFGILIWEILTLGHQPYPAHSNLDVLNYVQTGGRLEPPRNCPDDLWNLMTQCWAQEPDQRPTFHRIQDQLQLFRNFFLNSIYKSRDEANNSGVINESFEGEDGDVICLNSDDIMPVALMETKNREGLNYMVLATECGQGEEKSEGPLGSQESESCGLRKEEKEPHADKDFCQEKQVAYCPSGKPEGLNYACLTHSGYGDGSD
SLC34A2-ROS1, sequence (O95436 whole entry, further chain): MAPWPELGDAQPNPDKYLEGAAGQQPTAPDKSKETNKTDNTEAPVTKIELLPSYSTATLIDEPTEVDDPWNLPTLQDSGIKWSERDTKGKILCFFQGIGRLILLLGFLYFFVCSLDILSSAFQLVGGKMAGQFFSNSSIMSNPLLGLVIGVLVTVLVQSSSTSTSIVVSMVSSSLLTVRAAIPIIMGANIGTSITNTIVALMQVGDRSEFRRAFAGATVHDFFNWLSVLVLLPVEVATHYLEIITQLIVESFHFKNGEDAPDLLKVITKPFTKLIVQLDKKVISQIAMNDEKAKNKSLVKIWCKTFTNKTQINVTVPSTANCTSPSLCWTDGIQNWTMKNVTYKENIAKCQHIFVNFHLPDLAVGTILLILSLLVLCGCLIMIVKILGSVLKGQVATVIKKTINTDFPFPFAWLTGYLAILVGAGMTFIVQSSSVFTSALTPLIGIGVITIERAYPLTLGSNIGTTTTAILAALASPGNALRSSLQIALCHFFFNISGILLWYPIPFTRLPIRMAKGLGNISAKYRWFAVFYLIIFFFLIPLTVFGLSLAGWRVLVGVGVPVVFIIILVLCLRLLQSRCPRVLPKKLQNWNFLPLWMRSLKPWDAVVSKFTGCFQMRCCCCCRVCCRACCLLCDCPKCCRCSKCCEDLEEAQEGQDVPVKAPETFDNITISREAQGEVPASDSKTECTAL

U-87 MG [20] = assay: Antiproliferative activity against human U-87 MG cells over expressing c-Met assessed as reduction in cell viability after 48 to 72 hrs by MTT assay
U-87 MG [21] = settings: Homo sapiens; U-87MG ATCC; dose 5-50 mg/kg, route po, time 3.0 day
HCT-116 = assay: Antiproliferative activity against human HCT-116 cells over expressing c-Met assessed as reduction in cell viability after 48 to 72 hrs by MTT assay
GTL 16 [22] = settings: Homo sapiens, dose 0.3-10 mg/kg, route po, time 4.0 day; remark: listed apart in the source
GTL 16 [23] = settings: Homo sapiens, dose 0.3-10 mg/kg, route po, time 4.0 day; remark: listed apart in the source
HCC1143 = assay: Antiproliferative activity against human HCC1143 cells over expressing c-Met assessed as reduction in cell viability after 48 to 72 hrs by MTT assay
GTL 16 [24] = settings: Homo sapiens, dose 0.3-10 mg/kg, route po, time 4.0 day; remark: listed apart in the source
[25] = target: Tyrosine-protein kinase receptor UFO (Homo sapiens, UniProt P30530); assay: Inhibition of AXL expressed in HEK293 cells assessed as reduction in Gas6-stimulated AXL phosphorylation incubated for 1 hr by sandwich ELISA analysis
Tyrosine-protein kinase receptor UFO, sequence (P30530 whole entry): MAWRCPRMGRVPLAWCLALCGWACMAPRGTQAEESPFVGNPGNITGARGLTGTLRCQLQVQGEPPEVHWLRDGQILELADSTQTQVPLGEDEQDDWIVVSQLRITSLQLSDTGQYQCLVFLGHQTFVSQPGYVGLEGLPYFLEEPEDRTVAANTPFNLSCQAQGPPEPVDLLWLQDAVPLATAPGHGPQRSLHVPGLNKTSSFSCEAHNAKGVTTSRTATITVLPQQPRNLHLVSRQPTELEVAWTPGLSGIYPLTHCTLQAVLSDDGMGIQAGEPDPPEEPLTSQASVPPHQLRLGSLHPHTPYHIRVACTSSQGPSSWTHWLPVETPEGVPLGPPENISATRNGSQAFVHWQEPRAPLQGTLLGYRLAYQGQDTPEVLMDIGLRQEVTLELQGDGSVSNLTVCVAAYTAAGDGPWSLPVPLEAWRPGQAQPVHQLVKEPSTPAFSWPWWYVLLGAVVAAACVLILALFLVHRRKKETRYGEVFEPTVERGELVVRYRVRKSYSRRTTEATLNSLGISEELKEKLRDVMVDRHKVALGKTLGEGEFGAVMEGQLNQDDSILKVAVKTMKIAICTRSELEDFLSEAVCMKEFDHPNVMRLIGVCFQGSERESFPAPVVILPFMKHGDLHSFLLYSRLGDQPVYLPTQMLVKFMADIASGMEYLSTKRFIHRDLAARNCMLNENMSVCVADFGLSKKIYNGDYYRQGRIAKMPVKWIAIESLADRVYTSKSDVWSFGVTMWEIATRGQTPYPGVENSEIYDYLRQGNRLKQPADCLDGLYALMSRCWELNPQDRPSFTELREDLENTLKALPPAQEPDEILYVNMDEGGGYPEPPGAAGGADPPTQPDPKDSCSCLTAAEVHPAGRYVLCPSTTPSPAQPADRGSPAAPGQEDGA

For `OCCn1cc(-c2cnc3nnn(Cc4ccc5ncccc5c4)c3n2)cn1` [PF-04217903], the inhibition (HT-29 [1]) was “inactive”, the inhibition in vivo at 30 mg/kg (U-87 MG [2]) was 84% and the IC50 (NCI-H1993) was 0.03 µM. For the same molecule, the inhibition in vivo at 40 mg/kg/day (SW-620) was 45%, the inhibition in vivo at 50 mg/kg/day (HT-29 [3]) was 40% and the inhibition in vivo at 10 mg/kg (GTL 16 cell line [4]) was 90%. The IC50 (MDA-MB-468) was over 10 µM, the inhibition (GTL 16 [5]) was “Dose-Dependent Effect” and the inhibition in vivo at 50 mg/kg/day (HT-29 [6]) was 77%. The inhibition (U-87MG ATCC [7]) was “Active”, the inhibition (HT-29 [8]) was “Active” and the IC50 (COLO 205 [9]) was over 10 µM. For the same molecule, the inhibition (GTL 16 [10]) was “Dose-Dependent Effect”, the inhibition (U-87MG ATCC [11]) was “Active” and the inhibition in vivo at 1 mg/kg (GTL 16 cell line [12]) was 64%. For the same molecule, the IC50 [13] was 0.0064 µM, the IC50 [14] was 0.0067 µM and the inhibition in vivo at 0.5 mg/kg (GTL 16 cell line [15]) was 46%. It also gave an IC50 (PC-3) of over 10 µM, an inhibition in vivo at 3 mg/kg (U-87 MG [16]) of 48% and an IC50 (HUVEC) of 0.0123 µM. The inhibition in vivo at 40 mg/kg/day (COLO 205 [17]) was 44%, the IC50 (NCI-H441) was 0.011 µM and the inhibition (U-87MG ATCC [18]) was “Active”. It also gave an inhibition in vivo at 15 mg/kg (GTL 16 cell line [19]) of 93%, an IC50 (SLC34A2-ROS1) of over 10 µM and an IC50 (U-87 MG [20]) of over 10 µM. The inhibition (U-87 MG [21]) was “Active”, the IC50 (HCT-116) was over 10 µM and the inhibition (GTL 16 [22]) was “Dose-Dependent Effect”. For the same molecule, the inhibition (GTL 16 [23]) was “Dose-Dependent Effect”, the IC50 (HCC1143) was over 10 µM and the inhibition (GTL 16 [24]) was “Dose-Dependent Effect”. It also gave an IC50 [25] of over 10 µM.
